Data as given in US20240228488A1 (TAKEDA PHARMACEUTICAL COMPANY LIMITED, priority 2021, published 2024).

Tests used:
plasma kallikrein = target: T1, plasma kallikrein (Homo sapiens, UniProt P03952); test: Neat human plasma assay, FXIIa contact pathway-activated, PFR-AMC substrate; assay type: biochemical; conditions: citrated human plasma 78% final, 10 nM human FXIIa, 100 μM PFR-AMC; read-out: Human Plasma Assay: IC90
T1 construct: from tissue
How it was run: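 Citrated human plasma (78% final) with compound, contact-activated by 10 nM human FXIIa in pKal buffer pH 7.5, with 100 μM PFR-AMC. Fluorescence (360/480 nm) followed 5 min at room temperature; rates versus concentration fitted by 4-parameter equation for IC50/IC90.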

[1] = target: human activated kallikrein enzyme (Homo sapiens, UniProt P03952); test: Plasma kallikrein inhibition, fluorogenic PFR-AMC substrate, 500 pM activated kallikrein format; assay type: biochemical; conditions: 500 pM activated kallikrein, 300 uM PFR-AMC, 30 min preincubation, 10 min reaction; read-out: Primary Dose Response Assay: Average EC50
How it was run: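 500 pM enz + cpd, 30 min RT preinc; start w/ PFR-AMC 300 uM; 10 min RT; Ex380/Em460. Buffer: Tris 20 mM pH 7.5, EDTA 1 mM, NaCl 150 mM, PEG-400 0.1%, Triton 0.1%. EC50.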

T1 sequence (P03952 391-638 limits assumed): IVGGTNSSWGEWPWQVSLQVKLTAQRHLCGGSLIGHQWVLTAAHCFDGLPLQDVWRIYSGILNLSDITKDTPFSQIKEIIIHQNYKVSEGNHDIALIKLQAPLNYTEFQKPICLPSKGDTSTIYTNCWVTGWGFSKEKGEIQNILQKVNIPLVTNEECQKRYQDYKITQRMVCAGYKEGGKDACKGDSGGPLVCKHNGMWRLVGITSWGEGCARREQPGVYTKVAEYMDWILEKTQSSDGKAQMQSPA
T1 sequence (P03952 20-390 partner limits assumed): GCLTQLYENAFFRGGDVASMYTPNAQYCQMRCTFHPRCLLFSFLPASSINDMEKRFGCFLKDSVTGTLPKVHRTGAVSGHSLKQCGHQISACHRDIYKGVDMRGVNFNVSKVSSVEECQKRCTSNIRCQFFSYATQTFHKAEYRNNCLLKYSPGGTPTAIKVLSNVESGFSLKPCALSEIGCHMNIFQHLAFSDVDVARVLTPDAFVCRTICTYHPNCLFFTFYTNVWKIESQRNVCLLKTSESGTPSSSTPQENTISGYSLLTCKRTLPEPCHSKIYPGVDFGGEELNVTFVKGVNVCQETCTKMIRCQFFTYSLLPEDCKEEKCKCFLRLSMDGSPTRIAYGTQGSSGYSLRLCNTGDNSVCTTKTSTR
human activated kallikrein enzyme, sequence (P03952 391-638 limits assumed): as the sequence (P03952 391-638 limits assumed) above
human activated kallikrein enzyme, sequence (P03952 20-390 partner limits assumed): as the sequence (P03952 20-390 partner limits assumed) above

For `Cc1cc(N2CC(=O)N(C)C2=O)c2nc([C@@H](C)Nc3cc(NC(=O)[C@H]4C[C@@H]4c4nccc(C)n4)ncn3)cn2c1` [Example 423, (1S,2S)-N-(6-(((R)-1-(6-methyl-8-(3-methyl-2,4-dioxoimidazolidin-1-yl)imidazo[1,2-a]pyridin-2-yl)ethyl)amino)pyrimidin-4-yl)-2-(4-methylpyrimidin-2-yl)cyclopropane-1-carboxamide], the IC90 (plasma kallikrein) was less than 400 nM and the EC50 [1] was less than 1 nM.

For `COCc1nc(NC(=O)[C@H]2C[C@@H]2c2nccc(C)n2)cc(OCc2cn3cc(C4CC4)cc(N4CC(=O)N(C)C4=O)c3n2)n1` [Example 551, (1S,2S)-N-(6-((6-cyclopropyl-8-(3-methyl-2,4-dioxoimidazolidin-1-yl)imidazo[1,2-a]pyridin-2-yl)methoxy)-2-(methoxymethyl)pyrimidin-4-yl)-2-(4-methylpyrimidin-2-yl)cyclopropane-1-carboxamide], the IC90 (plasma kallikrein) was 400 to 1500 nM and the EC50 [1] was less than 1 nM.

For `CS(=O)(=O)Nc1cc(C2CC2)cn2cc(CNc3ccnc(NC(=O)[C@H]4C[C@@H]4c4cccc(Cl)c4)c3)nc12` [Example 126, (1S,2S)-2-(3-chlorophenyl)-N-(4-(((6-cyclopropyl-8-(methylsulfonamido)imidazo[1,2-a]pyridin-2-yl)methyl)amino)pyridin-2-yl)cyclopropane-1-carboxamide], the IC90 (plasma kallikrein) was 10000 to 48000 nM and the EC50 [1] was less than 1 nM.

`CCN1CCN(c2cc(C3CC3)cn3cc(CNc4ccnc(NC(=O)[C@H]5C[C@@H]5c5cccc(Cl)c5)c4)nc23)CC1` [Example I-234, (1S,2S)-2-(3-chlorophenyl)-N-(4-(((6-cyclopropyl-8-(4-ethylpiperazin-1-yl)imidazo[1,2-a]pyridin-2-yl)methyl)amino)pyridin-2-yl)cyclopropane-1-carboxamide] gave an IC90 (plasma kallikrein) of less than 400 nM and an EC50 [1] of less than 1 nM.

`Cc1ccnc([C@H]2C[C@@H]2C(=O)Nc2nc(C)nc(N(C)Cc3cn4cc(C5CC5)cc(N5CC(=O)NC5=O)c4n3)n2)n1` (racemic) [Example 524, rac-(1S*,2S*)-N-(4-(((6-cyclopropyl-8-(2,4-dioxoimidazolidin-1-yl)imidazo[1,2-a]pyridin-2-yl)methyl)(methyl)amino)-6-methyl-1,3,5-triazin-2-yl)-2-(4-methylpyrimidin-2-yl)cyclopropane-1-carboxamide] gave an IC90 (plasma kallikrein) of 400 to 1500 nM and an EC50 [1] of less than 1 nM.

With `Nc1ccc(Cl)cc1[C@H]1C[C@@H]1C(=O)Nc1cc(NCc2cn3cc(C4CC4)ccc3n2)ccn1` (racemic) [Example I-222, rac-(1S*,2S*)-2-(2-amino-5-chlorophenyl)-N-(4-(((6-cyclopropylimidazo[1,2-a]pyridin-2-yl)methyl)amino)pyridin-2-yl)cyclopropane-1-carboxamide] the IC90 (plasma kallikrein) was greater than 48000 nM and the EC50 [1] was 1 to 10 nM.

Work on `Cc1ccnc([C@H]2C[C@@H]2C(=O)Nc2nc(C3CC3)nc(N(C)Cc3cn4cc(C5CC5)cc(N5CC(=O)NC5=O)c4n3)n2)n1` (racemic) [Example 522, rac-(1S*,2S*)-N-(4-cyclopropyl-6-(((6-cyclopropyl-8-(2,4-dioxoimidazolidin-1-yl)imidazo[1,2-a]pyridin-2-yl)methyl)(methyl)amino)-1,3,5-triazin-2-yl)-2-(4-methylpyrimidin-2-yl)cyclopropane-1-carboxamide] yielded an IC90 (plasma kallikrein) of 400 to 1500 nM and an EC50 [1] of less than 1 nM.

With `Cc1ccnc([C@H]2C[C@@H]2C(=O)Nc2cc(N[C@H](C)c3cn4cc(C5CC5)cc(N5CC6(COC6)OC5=O)c4n3)nc(C)n2)n1` [Example 437, (1S,2S)-N-(6-(((R)-1-(6-cyclopropyl-8-(6-oxo-2,5-dioxa-7-azaspiro[3.4]octan-7-yl)imidazo[1,2-a]pyridin-2-yl)ethyl)amino)-2-methylpyrimidin-4-yl)-2-(4-methylpyrimidin-2-yl)cyclopropane-1-carboxamide] the IC90 (plasma kallikrein) was less than 400 nM and the EC50 [1] was less than 1 nM.

In the case of `CNC1CCN(c2cc(C3CC3)cn3cc(CNc4cc(NC(=O)[C@H]5C[C@@H]5c5cccc(Cl)c5)ncn4)nc23)C1` (stereo partly drawn) [Example I-16, (1S,2S)-2-(3-chlorophenyl)-N-(6-(((6-cyclopropyl-8-(3-(methylamino)pyrrolidin-1-yl)imidazo[1,2-a]pyridin-2-yl)methyl)amino)pyrimidin-4-yl)cyclopropane-1-carboxamide], the IC90 (plasma kallikrein) is reported as 400 to 1500 nM and the EC50 [1] is reported as less than 1 nM.

`CN1C(=O)CN(c2cc(C3CC3)cn3cc(CNc4cc(NC(=O)[C@H]5C[C@@H]5c5cc(Cl)ccn5)ncn4)nc23)C1=O` (single isomer, unassigned) [Example I-264] was tested, and the IC90 (plasma kallikrein) was 400 to 1500 nM and the EC50 [1] was less than 1 nM.

In the case of `Cc1nc([C@H]2C[C@@H]2C(=O)Nc2cc(N[C@H](C)c3cn4cc(C5CC5)cc(N5CC(=O)N(C)C5=O)c4n3)ncn2)ncc1F` (relative stereo) [Example 492, rac-(-(1S*,2S*)-N-(6-(((R)-1-(6-cyclopropyl-8-(3-methyl-2,4-dioxoimidazolidin-1-yl)imidazo[1,2-a]pyridin-2-yl)ethyl)amino)pyrimidin-4-yl)-2-(5-fluoro-4-methylpyrimidin-2-yl)cyclopropane-1-carboxamide], the IC90 (plasma kallikrein) is reported as 400 to 1500 nM and the EC50 [1] is reported as less than 1 nM.

`O=C(Nc1cc(NCc2cn3cc(C4CC4)cc(C4(F)CNC4)c3n2)ccn1)[C@H]1C[C@@H]1c1cccc(Cl)c1` [Example 133, (1S,2S)-2-(3-chlorophenyl)-N-(4-(((6-cyclopropyl-8-(3-fluoroazetidin-3-yl)imidazo[1,2-a]pyridin-2-yl)methyl)amino)pyridin-2-yl)cyclopropane-1-carboxamide] gave an IC90 (plasma kallikrein) of 400 to 1500 nM and an EC50 [1] of less than 1 nM.

With `O=C(Nc1cc(NCc2cn3cc(C4CC4)cc(N4CCCC4=O)c3n2)ccn1)[C@H]1C[C@@H]1c1cccc(Cl)c1` [Example 85, (1S,2S)-2-(3-chlorophenyl)-N-(4-(((6-cyclopropyl-8-(2-oxopyrrolidin-1-yl)imidazo[1,2-a]pyridin-2-yl)methyl)amino)pyridin-2-yl)cyclopropane-1-carboxamide] the IC90 (plasma kallikrein) was 400 to 1500 nM and the EC50 [1] was less than 1 nM.

For `Cc1ccnc([C@H]2C[C@@H]2C(=O)Nc2cc(N3C[C@@H](O)C[C@@H]3c3cn4cc(C5CC5)ccc4n3)ncn2)n1` (relative stereo) [Example 476, rac-(1S*,2S*)-N-(6-((2R,4S)-2-(6-cyclopropylimidazo[1,2-a]pyridin-2-yl)-4-hydroxypyrrolidin-1-yl)pyrimidin-4-yl)-2-(4-methylpyrimidin-2-yl)cyclopropane-1-carboxamide], the IC90 (plasma kallikrein) was 1500 to 10000 nM and the EC50 [1] was less than 1 nM.

In the case of `O=C(Nc1nc(O)nc(NCc2cn3cc(C4CC4)ccc3n2)n1)[C@H]1C[C@@H]1c1cccc(Cl)c1` [Example 295, (1S,2S)-2-(3-chlorophenyl)-N-(4-(((6-cyclopropylimidazo[1,2-a]pyridin-2-yl)methyl)amino)-6-hydroxy-1,3,5-triazin-2-yl)cyclopropane-1-carboxamide], the IC90 (plasma kallikrein) is reported as 1500 to 10000 nM and the EC50 [1] is reported as less than 1 nM.

Compound `O=C(Nc1cc(NCc2cn3cc(C4CC4)cc(CCCO)c3n2)ccn1)[C@H]1C[C@@H]1c1cccc(Cl)c1` [Example 291, (1S,2S)-2-(3-chlorophenyl)-N-(4-(((6-cyclopropyl-8-(3-hydroxypropyl)imidazo[1,2-a]pyridin-2-yl)methyl)amino)pyridin-2-yl)cyclopropane-1-carboxamide] has an IC90 (plasma kallikrein) of 1500 to 10000 nM and an EC50 [1] of less than 1 nM.

`CN1CCN(c2cc(C3CC3)cn3cc(CNc4cc(NC(=O)[C@H]5C[C@@H]5c5cc(Cl)ccn5)ncn4)nc23)CC1` (racemic) [Example I-192, rac-(1S*,2S*)-2-(4-chloropyridin-2-yl)-N-(6-(((6-cyclopropyl-8-(4-methylpiperazin-1-yl)imidazo[1,2-a]pyridin-2-yl)methyl)amino)pyrimidin-4-yl)cyclopropane-1-carboxamide] gave an IC90 (plasma kallikrein) of 1500 to 10000 nM and an EC50 [1] of less than 1 nM.

With `CN1CCN(c2cc(C3CC3)cn3cc(CNc4ccnc(NC(=O)[C@H]5C[C@@H]5c5cccc(Cl)c5)c4)nc23)CC1=O` [Example 130, (1S,2S)-2-(3-chlorophenyl)-N-(4-(((6-cyclopropyl-8-(4-methyl-3-oxopiperazin-1-yl)imidazo[1,2-a]pyridin-2-yl)methyl)amino)pyridin-2-yl)cyclopropane-1-carboxamide] the IC90 (plasma kallikrein) was 400 to 1500 nM and the EC50 [1] was less than 1 nM.

For `CN1C(=O)CN(c2cc(C3CC3)cn3cc(CNc4cc(NC(=O)[C@H]5C[C@@H]5c5nccc(Cl)n5)ncn4)nc23)C1=O` (racemic) [Example I-168, rac-(1S*,2S*)-2-(4-chloropyrimidin-2-yl)-N-(6-(((6-cyclopropyl-8-(3-methyl-2,4-dioxoimidazolidin-1-yl)imidazo[1,2-a]pyridin-2-yl)methyl)amino)pyrimidin-4-yl)cyclopropane-1-carboxamide], the IC90 (plasma kallikrein) was 400 to 1500 nM and the EC50 [1] was less than 1 nM.

With `Cc1csc([C@H]2C[C@@H]2C(=O)Nc2cc(NCc3cn4cc(C5CC5)cc(N5CC(=O)N(C)C5=O)c4n3)ncn2)n1` (racemic) [Example 446, rac-(1S*,2S*)—N-(6-(((6-cyclopropyl-8-(3-methyl-2,4-dioxoimidazolidin-1-yl)imidazo[1,2-a]pyridin-2-yl)methyl)amino)pyrimidin-4-yl)-2-(4-methylthiazol-2-yl)cyclopropane-1-carboxamide] the IC90 (plasma kallikrein) was 400 to 1500 nM and the EC50 [1] was less than 1 nM.

Compound `Cc1ccnc([C@H]2C[C@@H]2C(=O)Nc2cc(NCc3nc4c(N5CC(=O)N(C)C5=O)cc(C5CC5)cn4c3F)ncn2)n1` [Example 379, (1S,2S)-N-(6-(((6-cyclopropyl-3-fluoro-8-(3-methyl-2,4-dioxoimidazolidin-1-yl)imidazo[1,2-a]pyridin-2-yl)methyl)amino)pyrimidin-4-yl)-2-(4-methylpyrimidin-2-yl)cyclopropane-1-carboxamide] has an IC90 (plasma kallikrein) of 400 to 1500 nM and an EC50 [1] of less than 1 nM.
